Measurements from patent US20250049798A1, “WEE1 PROTEIN KINASE DEGRADATION AGENT AND USE THEREOF” (HANGZHOU GLUBIO PHARMACEUTICAL CO. LTD., priority 2021, published 2025).

molecular target: HiBiT tagged Wee1 (Homo sapiens, UniProt P30291); assay: Wee1 protein degradation assay (HiBiT assay); type: cell-based; settings: engineered HT-1080 cells, 20 hours
Sequence (P30291 whole entry): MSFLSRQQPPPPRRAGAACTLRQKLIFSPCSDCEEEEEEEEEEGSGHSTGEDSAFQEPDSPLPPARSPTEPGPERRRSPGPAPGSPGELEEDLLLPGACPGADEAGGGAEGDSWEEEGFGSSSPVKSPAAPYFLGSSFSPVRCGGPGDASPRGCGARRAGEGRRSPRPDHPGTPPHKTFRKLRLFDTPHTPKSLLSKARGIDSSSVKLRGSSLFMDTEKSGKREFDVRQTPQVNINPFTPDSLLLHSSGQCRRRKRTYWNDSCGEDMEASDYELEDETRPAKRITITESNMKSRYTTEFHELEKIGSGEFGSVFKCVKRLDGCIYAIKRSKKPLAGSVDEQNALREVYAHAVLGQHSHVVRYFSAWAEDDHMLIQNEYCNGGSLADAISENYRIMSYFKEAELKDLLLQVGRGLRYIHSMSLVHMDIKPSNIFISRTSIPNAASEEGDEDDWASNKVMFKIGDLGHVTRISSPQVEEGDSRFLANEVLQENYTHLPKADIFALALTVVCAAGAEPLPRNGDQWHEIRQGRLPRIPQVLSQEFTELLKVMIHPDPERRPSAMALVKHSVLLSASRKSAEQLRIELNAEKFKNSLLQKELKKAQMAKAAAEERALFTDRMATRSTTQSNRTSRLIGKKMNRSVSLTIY

Structure (SMILES) | DC50 [nM]
C=CCn1c(=O)c2cnc(Nc3ccc(N4CCN(CCCCc5cccc6c5n(C)c(=O)n6C5CCC(=O)NC5=O)CC4)cc3)nc2n1-c1cccc(C(C)(C)O)n1 (stereo not drawn) [Compound 51] | < 100
C=CCn1c(=O)c2cnc(Nc3ccc(N4CCN(CC5CCN(c6ccc(NC7CCC(=O)NC7=O)cc6F)CC5)CC4)c(F)c3)nc2n1-c1cccc(C(C)(C)O)n1 (stereo not drawn) [Compound 125] | < 100
C=CCn1c(=O)c2cnc(Nc3ccc(C4CCN(CC5CCN(c6ccc(NC7CCC(=O)NC7=O)cc6F)CC5)CC4)cc3)nc2n1-c1ccc2c(n1)[C@@](O)(CC)CC2 (stereo partly drawn) [Compound 109] | < 100
C=CCn1c(=O)c2cnc(Nc3ccc(N4CCN(C5CCN(c6ccc(NC7CCC(=O)NC7=O)cc6F)CC5)CC4)cc3)nc2n1-c1cccc(C(C)(C)O)n1 (stereo not drawn) [Compound 93] | < 100

Next, values leading:

DC50 [nM] | Structure (SMILES)
< 100 | C=CCn1c(=O)c2cnc(Nc3ccc(N4CCN(CC5CCN(c6cccc7c6n(C)c(=O)n7C6CCC(=O)NC6=O)CC5)CC4)cc3)nc2n1-c1cccc(C(C)(C)O)n1 (stereo not drawn) [Compound 65]
< 100 | C=CCn1c(=O)c2cnc(Nc3ccc(N4CCC(CN5CCC(c6ccc7c(c6)n(C)c(=O)n7C6CCC(=O)NC6=O)CC5)CC4)cc3)nc2n1-c1cccc(C(C)(C)O)n1 (stereo not drawn) [Compound 52]
< 100 | C=CCn1c(=O)c2cnc(Nc3ccc(N4CCC(N5CCN(c6ccc(NC7CCC(=O)NC7=O)cc6F)CC5)CC4)cc3)nc2n1-c1cccc(C(C)(C)O)n1 (stereo not drawn) [Compound 67]

same assay, conditions: engineered HT-1080 cells, 20 hours; maximum percentage of Wee1 degradation; read-out: HiBiT Wee1: Dmax

Structure (SMILES) | Dmax [%]
C=CCn1c(=O)c2cnc(Nc3ccc(N4CCN(CCCCc5cccc6c5n(C)c(=O)n6C5CCC(=O)NC5=O)CC4)cc3)nc2n1-c1cccc(C(C)(C)O)n1 (stereo not drawn) [Compound 51] | 50 to 75
C=CCn1c(=O)c2cnc(Nc3ccc(N4CCN(CC5CCN(c6ccc(NC7CCC(=O)NC7=O)cc6F)CC5)CC4)c(F)c3)nc2n1-c1cccc(C(C)(C)O)n1 (stereo not drawn) [Compound 125] | > 75
C=CCn1c(=O)c2cnc(Nc3ccc(C4CCN(CC5CCN(c6ccc(NC7CCC(=O)NC7=O)cc6F)CC5)CC4)cc3)nc2n1-c1ccc2c(n1)[C@@](O)(CC)CC2 (stereo partly drawn) [Compound 109] | 50 to 75
C=CCn1c(=O)c2cnc(Nc3ccc(N4CCN(C5CCN(c6ccc(NC7CCC(=O)NC7=O)cc6F)CC5)CC4)cc3)nc2n1-c1cccc(C(C)(C)O)n1 (stereo not drawn) [Compound 93] | > 75

Other lines, results leading:

Dmax [%] | Structure (SMILES)
50 to 75 | C=CCn1c(=O)c2cnc(Nc3ccc(N4CCN(CC5CCN(c6cccc7c6n(C)c(=O)n7C6CCC(=O)NC6=O)CC5)CC4)cc3)nc2n1-c1cccc(C(C)(C)O)n1 (stereo not drawn) [Compound 65]
50 to 75 | C=CCn1c(=O)c2cnc(Nc3ccc(N4CCC(CN5CCC(c6ccc7c(c6)n(C)c(=O)n7C6CCC(=O)NC6=O)CC5)CC4)cc3)nc2n1-c1cccc(C(C)(C)O)n1 (stereo not drawn) [Compound 52]
> 75 | C=CCn1c(=O)c2cnc(Nc3ccc(N4CCC(N5CCN(c6ccc(NC7CCC(=O)NC7=O)cc6F)CC5)CC4)cc3)nc2n1-c1cccc(C(C)(C)O)n1 (stereo not drawn) [Compound 67]

tested on: NCI-H1048 cells; assay: NCI-H1048 cell proliferation assay (CTG assay); type: cell-based; settings: Homo sapiens, 120 hours, read-out: CTG cellular assay_H1048: IC50
Method in brief: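 NCI-H1048 small cell lung cancer cells (RPMI-1640, 10% FBS) were exposed to 10-point half-log compound dilutions from 10 μM to 0.316 nM for 120 h at 37° C., 5% CO2. Viability was read by CellTiter-Glo luminescence and normalized to DMSO as percent of control. EC50 and DC50 were fitted with a four-parameter logistic model.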

Structure (SMILES) | IC50 [nM]
C=CCn1c(=O)c2cnc(Nc3ccc(N4CCN(CCCCc5cccc6c5n(C)c(=O)n6C5CCC(=O)NC5=O)CC4)cc3)nc2n1-c1cccc(C(C)(C)O)n1 (stereo not drawn) [Compound 51] | ≤ 25
C=CCn1c(=O)c2cnc(Nc3ccc(N4CCN(CC5CCN(c6ccc(NC7CCC(=O)NC7=O)cc6F)CC5)CC4)c(F)c3)nc2n1-c1cccc(C(C)(C)O)n1 (stereo not drawn) [Compound 125] | 25 to 100
C=CCn1c(=O)c2cnc(Nc3ccc(C4CCN(CC5CCN(c6ccc(NC7CCC(=O)NC7=O)cc6F)CC5)CC4)cc3)nc2n1-c1ccc2c(n1)[C@@](O)(CC)CC2 (stereo partly drawn) [Compound 109] | ≤ 25
C=CCn1c(=O)c2cnc(Nc3ccc(N4CCN(C5CCN(c6ccc(NC7CCC(=O)NC7=O)cc6F)CC5)CC4)cc3)nc2n1-c1cccc(C(C)(C)O)n1 (stereo not drawn) [Compound 93] | ≤ 25

The remaining lines, values ahead:

IC50 [nM] | Structure (SMILES)
≤ 25 | C=CCn1c(=O)c2cnc(Nc3ccc(N4CCN(CC5CCN(c6cccc7c6n(C)c(=O)n7C6CCC(=O)NC6=O)CC5)CC4)cc3)nc2n1-c1cccc(C(C)(C)O)n1 (stereo not drawn) [Compound 65]
≤ 25 | C=CCn1c(=O)c2cnc(Nc3ccc(N4CCC(CN5CCC(c6ccc7c(c6)n(C)c(=O)n7C6CCC(=O)NC6=O)CC5)CC4)cc3)nc2n1-c1cccc(C(C)(C)O)n1 (stereo not drawn) [Compound 52]
≤ 25 | C=CCn1c(=O)c2cnc(Nc3ccc(N4CCC(N5CCN(c6ccc(NC7CCC(=O)NC7=O)cc6F)CC5)CC4)cc3)nc2n1-c1cccc(C(C)(C)O)n1 (stereo not drawn) [Compound 67]

tested on: not listed separately; assay: Permeability study in MDCKII cells (bidirectional A to B and B to A); type: in vitro ADME, Canine; settings: dog, MDCK, pH 7.4
Method: MDCKII (Madin-Darby Canine Kidney cell line, wild type) cell was obtained from the Netherlands Cancer Institute, which was used for P-gp substrates or inhibitors screening and predicting the permeability of compounds with high efflux barriers such as duodenum, blood-brain barrier, hepatocyte nucleus and renal unit. The MDCKII cells with 10 to 22 passages were used for the permeability investigation.
MDCKII cells were cultured using Minimum Essential Media (MEM) at 37° C., 5% CO2 and 95% relative humidity. The cells were seeded in Transwell plate with 5.45×10^5 cells/cm^2. Then the cells were incubated in CO2 Incubator for 4-7 days for transport studies.
The complete medium was prepared by adding 10% FBS (fetal bovine serum) and 1% glutamax-1 to 500 ml MEM.
The dose concentrations of test compounds and control compounds were 1 μM. The bidirectional (A to B and B to A) permeability was evaluated. All incubations are performed in duplicate.
The regents were pre-incubated at 37±1° C. for 30 minutes. To determine the transport rate from apical to basolateral direction, 125 μL working solution (1 μM) was added to the Transwell insert (apical compartment), and 50 μL sample was immediately transferred from the apical compartment to a new 96-well plate as the initial donor sample (A-B) and mixed with 200 μL of acetonitrile or methanol containing IS. And 235 μL HBSS (10 mM HEPES, pH 7.4) was added to the receiver plate (basolateral compartment). To determine the transport rate from basolateral to apical direction, 285 μL working solution (1 μM) was added to the receiver plate (basolateral compartment), and 50 μL sample was immediately transferred from the basolateral compartment to a new 96-well plate as the initial donor sample (B-A) and mixed with 200 μL of acetonitrile or methanol containing IS. And 75 μL HBSS (10 mM HEPES, pH 7.4) was added to the Transwell insert (apical compartment). Then the plate was incubated at […] with 5% CO2 and 95% relative humidity for 120 minutes.
At the end of incubation, 50 μL samples from donor and receiver sides were transferred into a new 96-well plate. 200 μL of ice-cold acetonitrile or methanol containing appropriate internal standards (IS) was mixed with the samples. After vortex for 10 minutes, the samples are centrifuged at 3220 g for 40 minutes. An aliquot of 100 μL of the supernatant was mixed with appropriate volume of ultra-pure water and was analyzed by LC-MS/MS. All incubations are performed in duplicate.
The integrity of MDCKII cells were checked by Lucifer Yellow Rejection Assay after transport assay. The plate(s) were incubated with Lucifer Yellow solution at 37° C. for 30 minutes. The Lucifer Yellow fluorescence (to monitor monolayer integrity) was measured in a fluorescence plate reader at 480 nm excitation and 530 nm emission.
Test and reference compounds (metoprolol and digoxin) were semi-quantitatively analyzed, and the peak area ratio of the analyte and the internal standard was used to evaluate the concentration of the compounds.

efflux ratio at 120 min, 1 μM | Structure (SMILES)
0.94 | C=CCn1c(=O)c2cnc(Nc3ccc(N4CCN(CC5CCN(c6cccc7c6n(C)c(=O)n7C6CCC(=O)NC6=O)CC5)CC4)cc3)nc2n1-c1cccc(C(C)(C)O)n1 (stereo not drawn) [Compound 65]

same assay, conditions: dog, MDCK, pH 7.4, 120 minutes, apical to basolateral

Papp A→B at 120 min, 1 μM [×10⁻⁶ cm/s] | Structure (SMILES)
1.35 | C=CCn1c(=O)c2cnc(Nc3ccc(N4CCN(CC5CCN(c6cccc7c6n(C)c(=O)n7C6CCC(=O)NC6=O)CC5)CC4)cc3)nc2n1-c1cccc(C(C)(C)O)n1 (stereo not drawn) [Compound 65]

same assay, conditions: dog, MDCK, pH 7.4, 120 minutes, basolateral to apical

Papp B→A at 120 min, 1 μM [×10⁻⁶ cm/s] | Structure (SMILES)
1.27 | C=CCn1c(=O)c2cnc(Nc3ccc(N4CCN(CC5CCN(c6cccc7c6n(C)c(=O)n7C6CCC(=O)NC6=O)CC5)CC4)cc3)nc2n1-c1cccc(C(C)(C)O)n1 (stereo not drawn) [Compound 65]
